Reference: patent US10947254B2, “Methods for treating ulcerative colitis using 3-((1R,3s,5S)-3-((7-((5-methyl-1H-pyrazol-3-yl)amino)-1,6-naphthyridin-5-yl)amino)-8-azabicyclo[3.2.1]octan-8-yl)propanenitrile” (priority 2015, dated 2021)

Tests used:
[1] = tested on: oxazolone-induced colitis; experiment: Mouse model of oxazolone-induced colitis; assay type: in vivo, BALB/C mice; conditions: mice, PO, 1, 3, and/or 10 mg/kg BID (doses up to 10 mg/kg BID)
Protocol: Assay 7: Mouse Model of Oxazalone-Induced Colitis
Oxazolone-induced colitis is an experimental model that has a histological resemblance to human ulcerative colitis (Heller et al. Immunology, 2002, 17, 629-638). Adult BALB/C mice from Harlan were used in the assay. On day 1, animals were lightly anesthetized with isoflurane and the hairs between the shoulder were carefully removed before oxazolone (4%, 150 μL, 4:1 acetone:olive oil formulation) or vehicle solution was slowly applied for skin sensitization. Seven days after skin sensitization, the mice were fasted overnight, anesthetized with isoflurane inhalation, and a 1 mL syringe equipped with a 3.5-F catheter, filled with oxazolone solution, was inserted carefully about 4 cm into the colon of the mouse. Following insertion, 50 μL of the oxazolone solution (1%, 1:1 ethanol:water formulation) was injected very slowly (over 30 sec using an injection pump) into the colon. The catheter was removed and the mice were held vertically (head down) for 2 min to ensure that the entire oxazolone solution remained inside the colon. Drug treatment (PO, BID or TID) or vehicle was initiated a day prior to the oxazolone intrarectal (IR) challenge. Two-day post oxazolone intrarectal challenge, the Disease Activity Index (DAI) was assessed by treatment-blinded experimenters for each mouse according to the criteria score: stool consistency score (0, normal; 2, loose; 4, diarrhea), gross bleeding score (0, absence; 2, blood tinged; 4, presence), and weight loss score (0, none; 1, 1%-5%; 2, 5%-10%; 3, 10%-20%; 4, more than 20%); DAI=average of (stool consistency score+gross bleeding score+weight loss score).
Selected compounds of the invention were tested in the assay. Efficacy in the model is evidenced by a decrease in DAI score as compared with the score from vehicle treated animals.

[2] = tested on: IL-13 induced STAT6 phosphorylation in BEAS-2B human lung epithelial cells; conditions: BEAS-2B cells
[3] = tested on: IL-4 induced STAT6 phosphorylation in THP-1 human monocytic cells; conditions: THP-1 cells

SMILES	decrease in DAI score as compared with vehicle treated animals [1]	BEAS2B pIC50 [2]	THP-1 IL4 pIC50 [3]
Cc1cc(Nc2cc3ncccc3c(N[C@@H]3C[C@H]4CCC[C@@H](C3)N4CC(=O)N(C)C)n2)n[nH]1 [Example 1-38]	statistically significant decrease	–	–
Cc1cc(Nc2cc3ncccc3c(N[C@@H]3C[C@H]4CC[C@@H](C3)N4CCF)n2)n[nH]1 [Example 2, N^5-((1R,3s,5S)-8-(2-fluoroethyl)-8-azabicyclo[3.2.1]octan-3-yl)-N^7-(5-methyl-1H-pyrazol-3-yl)-1,6-naphthyridine-5,7-diamine]	statistically significant decrease	–	–
CCC(=O)N1[C@@H]2CC[C@H]1C[C@H](Nc1nc(Nc3cc(C)[nH]n3)cc3ncccc13)C2 [Example 2-1]	did not exhibit a statistically significant decrease	–	–
CCC(C)C(=O)N1C2CCC1CC(Nc1nc(Nc3cc(C)[nH]n3)cc3ncccc13)C2 (stereo not shown) [Example 2-6]	did not exhibit a statistically significant decrease	A (A represents a pEC50 value ≥7.5 (EC50≤32 nM))	–
Cc1cc(Nc2cc3ncccc3c(NC3CC4CCCC(C3)N4C(=O)C(C)O)n2)n[nH]1 (stereo not shown) [Example 2-16]	did not exhibit a statistically significant decrease	–	–
CCOCC(=O)N1[C@@H]2CCC[C@H]1C[C@H](Nc1nc(Nc3cc(C)[nH]n3)cc3ncccc13)C2 [Example 2-17]	did not exhibit a statistically significant decrease	A (A represents a pEC50 value ≥7.5 (EC50≤32 nM))	–
Cc1cc(Nc2cc3ncccc3c(N[C@@H]3C[C@H]4CC[C@@H](C3)N4S(=O)(=O)c3cccnc3)n2)n[nH]1 [Example 3, N^7-(5-methyl-1H-pyrazol-3-yl)-N^5-((1R,3s,5S)-8-(pyridin-3-ylsulfonyl)-8-azabicyclo[3.2.1]octan-3-yl)-1,6-naphthyridine-5,7-diamine]	statistically significant decrease	–	–
Cc1cc(Nc2cc3ncccc3c(N[C@@H]3C[C@H]4CCC[C@@H](C3)N4C(=O)CN(C)C)n2)n[nH]1 [Example 4, 2-(Dimethylamino)-1-((1R,3s,5S)-3-((7-((5-methyl-1H-pyrazol-3-yl)amino)-1,6-naphthyridin-5-yl)amino)-9-azabicyclo[3.3.1]nonan-9-yl)ethan-1-one]	statistically significant decrease	–	–
Cc1cc(Nc2cc3ncccc3c(N[C@@H]3C[C@H]4CC[C@@H](C3)N4S(=O)(=O)C3CC3)n2)n[nH]1 [Example 4-4]	did not exhibit a statistically significant decrease	–	–
Cc1cc(Nc2cc3ncccc3c(N[C@@H]3C[C@H]4CC[C@@H](C3)N4C(=O)C(F)F)n2)n[nH]1 [Example 5, 2,2-difluoro-1-((1R,3s,5S)-3-((7-((5-methyl-1H-pyrazol-3-yl)amino)-1,6-naphthyridin-5-yl)amino)-8-azabicyclo[3.2.1]octan-8-yl)ethan-1-one]	statistically significant decrease	–	–
Cc1cc(Nc2cc3nc(CO)ccc3c(N[C@@H]3C[C@H]4CC[C@@H](C3)N4CCC#N)n2)n[nH]1 [Example 5-11]	did not exhibit a statistically significant decrease	–	A (A represents a pEC50 value ≥7.5 (EC50≤32 nM))
COCCS(=O)(=O)N1[C@@H]2CC[C@H]1C[C@H](Nc1nc(Nc3cc(C)[nH]n3)cc3ncccc13)C2 [Example 6, N^5-((1R,3s,5S)-8-((2-methoxyethyl)sulfonyl)-8-azabicyclo[3.2.1]octan-3-yl)-N^7-(5-methyl-1H-pyrazol-3-yl)-1,6-naphthyridine-5,7-diamine]	statistically significant decrease	–	–
Cc1cnc2cc(Nc3cc(C)[nH]n3)nc(N[C@@H]3C[C@H]4CCC[C@@H](C3)N4S(=O)(=O)N3CC(C#N)C3)c2c1 [Example 6-9]	–	A (A represents a pEC50 value ≥7.5 (EC50≤32 nM))	A (A represents a pEC50 value ≥7.5 (EC50≤32 nM))
COc1cnc2cc(Nc3cc(C)[nH]n3)nc(N[C@@H]3C[C@H]4CC[C@@H](C3)N4CC(C)C)c2c1 [Example 6-14]	–	A (A represents a pEC50 value ≥7.5 (EC50≤32 nM))	A (A represents a pEC50 value ≥7.5 (EC50≤32 nM))
COc1cnc2cc(Nc3cc(C)[nH]n3)nc(N[C@@H]3C[C@H]4CC[C@@H](C3)N4CCC(F)(F)F)c2c1 [Example 6-15]	–	A (A represents a pEC50 value ≥7.5 (EC50≤32 nM))	A (A represents a pEC50 value ≥7.5 (EC50≤32 nM))
COc1cnc2cc(Nc3cc(C)[nH]n3)nc(N[C@@H]3C[C@H]4CCC[C@@H](C3)N4Cc3ccncc3)c2c1 [Example 6-28]	–	A (A represents a pEC50 value ≥7.5 (EC50≤32 nM))	A (A represents a pEC50 value ≥7.5 (EC50≤32 nM))
COc1cnc2cc(Nc3cc(C)[nH]n3)nc(N[C@@H]3C[C@H]4CCC[C@@H](C3)N4S(C)(=O)=O)c2c1 [Example 6-29]	–	A (A represents a pEC50 value ≥7.5 (EC50≤32 nM))	A (A represents a pEC50 value ≥7.5 (EC50≤32 nM))
COc1cnc2cc(Nc3cc(C)[nH]n3)nc(N[C@@H]3C[C@H]4CCC[C@@H](C3)N4CCC#N)c2c1 [Example 6-31]	–	A (A represents a pEC50 value ≥7.5 (EC50≤32 nM))	A (A represents a pEC50 value ≥7.5 (EC50≤32 nM))
COC(=O)c1cnc2cc(Nc3cc(C)[nH]n3)nc(N[C@@H]3C[C@H]4CCC[C@@H](C3)N4CCC#N)c2c1 [Example 6-47]	–	A (A represents a pEC50 value ≥7.5 (EC50≤32 nM))	A (A represents a pEC50 value ≥7.5 (EC50≤32 nM))
CCS(=O)(=O)N1[C@@H]2CC[C@H]1C[C@H](Nc1nc(Nc3cc(C)[nH]n3)cc3ncccc13)C2 [Example 7, N^5-((1R,3s,5S)-8-(ethylsulfonyl)-8-azabicyclo[3.2.1]octan-3-yl)-N^7-(5-methyl-1H-pyrazol-3-yl)-1,6-naphthyridine-5,7-diamine]	did not exhibit a statistically significant decrease	–	–
Cc1cc(Nc2cc3ncccc3c(N[C@@H]3C[C@H]4CCC[C@@H](C3)N4S(=O)(=O)c3cccnc3)n2)n[nH]1 [Example 8, N^7-(5-methyl-1H-pyrazol-3-yl)-N^5-((1R,3s,5S)-9-(pyridin-3-ylsulfonyl)-9-azabicyclo[3.3.1]nonan-3-yl)-1,6-naphthyridine-5,7-diamine]	statistically significant decrease	–	–
Cc1cc(Nc2nc(N[C@@H]3C[C@H]4CC[C@@H](C3)N4S(C)(=O)=O)c3cccnc3c2F)n[nH]1 [Example 8-2]	–	C (C represents a pEC50 value <6.7 (EC50>200 nM))	A (A represents a pEC50 value ≥7.5 (EC50≤32 nM))
Cc1cc(Nc2nc(N[C@@H]3C[C@H]4CCC[C@@H](C3)N4S(C)(=O)=O)c3cccnc3c2F)n[nH]1 [Example 8-10]	–	A (A represents a pEC50 value ≥7.5 (EC50≤32 nM))	A (A represents a pEC50 value ≥7.5 (EC50≤32 nM))
Cc1cc(Nc2nc(N[C@@H]3C[C@H]4CCC[C@@H](C3)N4S(=O)(=O)c3cccnc3)c3cccnc3c2F)n[nH]1 [Example 8-12]	–	A (A represents a pEC50 value ≥7.5 (EC50≤32 nM))	A (A represents a pEC50 value ≥7.5 (EC50≤32 nM))
Cc1cc(Nc2nc(N[C@@H]3C[C@H]4CCC[C@@H](C3)N4Cc3ccncc3)c3cccnc3c2F)n[nH]1 [Example 8-14]	–	A (A represents a pEC50 value ≥7.5 (EC50≤32 nM))	A (A represents a pEC50 value ≥7.5 (EC50≤32 nM))
Cc1cc(Nc2cc3ncccc3c(N[C@@H]3C[C@H]4CCC[C@@H](C3)N4S(=O)(=O)c3ccccc3)n2)n[nH]1 [Example 9, N^7-(5-methyl-1H-pyrazol-3-yl)-N^5-((1R,3s,5S)-9-(phenylsulfonyl)-9-azabicyclo[3.3.1]nonan-3-yl)-1,6-naphthyridine-5,7-diamine]	did not exhibit a statistically significant decrease	–	–
Cc1cc(Nc2cc3ncccc3c(N[C@@H]3C[C@H]4CCC[C@@H](C3)N4S(=O)(=O)N3CC(C#N)C3)n2)n[nH]1 [Example 11]	did not exhibit a statistically significant decrease	–	–
Cc1cc(Nc2cc3nc(CO)ccc3c(N[C@@H]3C[C@H]4CC[C@@H](C3)N4C(=O)OCC(C)C)n2)n[nH]1 [Example 12, Isobutyl (1R,3s,5S)-3-((2-(hydroxymethyl)-7-((5-methyl-1H-pyrazol-3-yl)amino)-1,6-naphthyridin-5-yl)amino)-8-azabicyclo[3.2.1]octane-8-carboxylate]	statistically significant decrease	–	–
Cc1cc(Nc2cc3ncccc3c(N[C@@H]3C[C@H]4CC[C@@H](C3)N4S(=O)(=O)N3CC(C#N)C3)n2)n[nH]1 [Example 13]	did not exhibit a statistically significant decrease	–	–
